Source: patent publication US8772309B2, “Pharmaceutical formulation of apomorphine for buccal administration” (Amarin Pharmaceuticals Ireland Limited, priority 2005, dated 2014)

Key:
[1] = Ionisation of apomorphine (pKa, un-ionised proportion against pH); format: physicochemical
Source text: For optimal buccal absorption the apomorphine used should ideally be un-ionised at physiological pH.
If the pH of the product is adjusted to about 8.0, approximately 10% of the apomorphine becomes un-ionised and thus available for absorption. The pH-dependent degree of ionisation of the drug is maintained by a dynamic equilibrium. As un-ionised drug is removed by absorption, more ionised drug becomes un-ionised in order to restore the equilibrium. As a result there is always a sufficient amount of un-ionised drug generated that can be absorbed rapidly.

[2] = system: "on-off" fluctuations in Parkinson's disease; settings: sublingual administration, patients responsive to subcutaneous apomorphine; cited from earlier work

Proportion of apomorphine un-ionised ([1]; pH 3.5): negligible | Proportion of apomorphine un-ionised ([1]; pH adjusted to about 8.0): approximately 10%
SMILES: CN1CCc2cccc3c2[C@H]1Cc1ccc(O)c(O)c1-3 [apomorphine]
Mean time to onset of effect [2]: approximately 30 minutes
